Assays:
HBV = assay: Quantitative PCR screen of HBV plus-polarity DNA accumulation; type: cell-based, Hepatitis B virus; conditions: 60, 20, or 6.7 μM; DNA isolated day 3
Method: This assay was employed to screen 7 compounds for their ability to suppress HBV replication (FIG. 17). […] Fresh medium containing compound was provided on days 1 and 2, and capsid-associated HBV DNAs were isolated on day 3. HBV plus-strand DNAs were measured using the cross-gap TaqMan PCR assay.
Plus-polarity preferential quantitative TaqMan PCR for the HBV DNA was conducted employing forward primer […] […] PCR was conducted on purified HBV capsid-derived nucleic acids for 40 cycles of 95° C. for 15 sec. and 65° C. for 1 min. employing the TaqMan universal PCR master mix (Applied Biosystems). Results were standardized against serial dilutions of cloned HBV DNA. The EC50 was estimated by linear regression of the real-time PCR data.

HBV genotype A = assay: Plus-polarity preferential real-time PCR of HBV DNA, Huh7 cells; type: cell-based, Hepatitis B virus
Method: Plus-polarity preferential quantitative TaqMan PCR for the HBV DNA was conducted employing forward primer […] (SEQ ID NO: 13), reverse primer […] (SEQ ID NO:14), and probe 5′-6Fam-[…]-Zen-[…]-IabkFQ-3′ (5′-6Fam-SEQ ID NO:15-Zen-SEQ ID NO: 16-IabkFQ-3′) (Integrated DNA Technologies). PCR was conducted on purified HBV capsid-derived nucleic acids for 40 cycles of 95° C. for 15 sec. and 65° C. for 1 min. employing the TaqMan universal PCR master mix (Applied Biosystems). Results were standardized against serial dilutions of cloned HBV DNA. The EC50 was estimated by linear regression of the real-time PCR data.
The HBV plus-polarity DNA strand was measured to quantify the effects of βTJ on HBV replication because plus-polarity DNA cannot be made without RNAseH activity. Real-time PCR primers flanking the gap in the HBV minus-polarity DNA were designed that preferentially measure plus-polarity DNA because amplification across the gap in the minus-polarity DNA is inefficient. […] Above 10 μM, βTJ suppressed HBV plus-polarity DNA levels to below the assay background of approximately 14% that was determined with the D702A RNAseH-deficient genome.

HepG2 cells = assay: MTS cytotoxicity assay in HepG2 cells; type: cell-based, human; conditions: four days
Method: Toxicity of βTJ in Huh7 cells was determined with 3-(4,5-dimethylthiazol-2-yl)-5-β-carboxymethoxyphenyl)-2-(4-sulfophenyl)-2H-tetrazolium (MTS) assays that measures mitochondrial dysfunction employing the Cell Titre 96 aqueous nonradioactive cell proliferation assay (Promega), and with the CytoTox-Glo assay (Promega) that reflects cellular integrity. Huh7 and HepG2 cells (1×10^4) were plated in 96-well tissue culture plates, medium containing βTJ at the indicated concentrations was added the next day, the medium was replaced with fresh medium containing βTJ after two days, and after four days the MTS or CytoTox-Glo assays were conducted according to the manufacturer's instructions.

HIV-1 RNAseH = HIV-1 RNAseH (Human immunodeficiency virus type 1 group M subtype B, UniProt P04585); conditions: read-out: IC50 against the HIV RNAseH; cited from earlier work
CEM-SS cells = conditions: cited from earlier work
HBV genotype D = assay: HBV replication inhibition in Huh7 cells, Southern blot, genotype D; type: cell-based, Hepatitis B virus; conditions: 10 μM
Method: Huh7 cells were maintained in Dulbecco's modified Eagle's medium with 10% fetal bovine serum at 37° C. in 5% CO2. Cells were seeded into 60 mm dishes and transfected at 70% confluency with 2.6 μg of plasmids using TransIT-LT1 (Mirus, Inc.). Test compounds were added the morning following transfection at 10 or 50 μM, and fresh medium containing the compounds was provided every 1-2 days. Four or five days post-transfection HBV cores were isolated by lysis of the cells in 10 mM Tris pH 7.5, 1 mM EDTA, 0.25% NP40, 50 mM NaCl, and 8% sucrose followed by sedimentation through a 30% sucrose cushion as described (Travis, et al., 1998). […] The nucleic acid samples were resolved by electrophoresis on 1.2% agarose gels and detected by Southern blotting with ^32P-labeled HBV DNA as a probe.
Finally, the inventors asked whether HBV RNAseH inhibitors could block HBV replication in culture. […] Replicate nucleic acid aliquots were mock treated or treated with DNAse-free E. coli RNAseH to destroy RNA:DNA heteroduplexes, and then HBV DNAs were detected by Southern blotting. […]
Inhibition of HBV replication by βTJ was measured as recently described (Tavis et al., 2013). […] The nucleic acids were resolved by electrophoresis on 1.2% agarose gels and HBV DNAs were detected by Southern blotting with ^32P-labeled double-stranded HBV DNA as a probe to detect both the plus- and minus-polarity HBV DNA strands. […]

[1] = molecular target: T1, HBV genotype D RNAseH (HRHPL) (Hepatitis B virus genotype D subtype ayw, UniProt P03156, INS679M); conditions: Tavis et al., 2013; read-out: IC50 against the HBV RNAseH, previously reported; cited from earlier work
T1 construct: HRHPL contains HBV genotype D (Genbank V01460) polymerase residues 684-845; made in house; host or cells: E. coli BL21 codon+
T1 sequence (P03156 680-832, added parts left off, stated change not applied): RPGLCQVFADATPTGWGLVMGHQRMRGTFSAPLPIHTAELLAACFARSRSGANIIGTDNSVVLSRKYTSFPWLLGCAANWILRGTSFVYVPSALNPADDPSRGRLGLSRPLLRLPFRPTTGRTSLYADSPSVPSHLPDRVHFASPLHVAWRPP

| SMILES | Suppression of HBV plus-polarity DNA accumulation (HBV) | HBV plus-polarity DNA level (HBV genotype A; above 10 μM, assay background approximately 14%) | EC50 (HBV genotype A; read-out: 50% effective concentration (EC50), genotype A isolate in Huh7 cells) | CC50 (HepG2 cells) | IC50 (HIV-1 RNAseH) | CC50 (CEM-SS cells) | Inhibition of HBV replication, genotype D isolate (HBV genotype D) | Plus-strand DNA accumulation (HBV genotype A; 10 μM, data not shown) | IC50 [1] |
| --- | --- | --- | --- | --- | --- | --- | --- | --- | --- |
| CCOc1ccc(-c2c3cc(O)c(=O)cc-3oc3cc(O)c(O)cc23)cc1 [Compound 30] | inhibited accumulation of HBV plus-polarity DNA to lesser extents | – | – | – | – | – | – | – | – |
| CC(C)c1ccc(O)c(=O)c(O)c1 [Compound 46, beta-thujaplicinol] | suppressed viral replication to background | < 14% | ~5 µM | 16.7 ± 3.7 µM | 0.2 to 0.3 µM | 2.3 µM | – | – | – |
| NCc1ccc(-c2ccc(Cc3cc(=O)n(O)c4ncccc34)cc2)cc1 [Compound 12, napthyridinone] | – | – | – | – | – | – | Very few of the most slowly-migrating double-stranded nucleic acids accumulated | 7.3 % of the DMSO treated control | 2.5 µM |
